According to patent publication US7776846B2, “Enhancement of activity and/or duration of action of selected anti-inflammatory steroids for topical or other local application” (priority 2003, dated 2010):

Assays:
[1] = test system: forearm of a human volunteer; assay: Human vasoconstriction (blanching) testing, AUC through 18 hours; assay type: in vivo; conditions: for effect on the time period during which hydrocortisone displayed activity / effect on the vasoconstrictor activity of hydrocortisone: co-applied with hydrocortisone; for effect on the vasoconstrictor activity of hydrocortisone: molar ratio hydrocortisone:enhancer 1:5 to 1:1, particularly at the lower concentrations
Protocol: The combinations of the present invention have undergone human vasoconstriction, or blanching, testing. Such testing gives a reliable indication of local anti-inflammatory/glucocorticoid activity.
Test compounds at varying mM concentrations as noted below were dissolved in ethanol/propylene glycol (9/1) solution, and 20 μL of the mixtures were applied to filter paper discs, 0.7 cm in diameter. After ethanol evaporation, each disc was attached to waterproof adhesive tape, then applied to the forearm of a human volunteer and left in place for 4 hours. Groups of 6 forearms were tested at each concentration and the intensity of vasoconstriction was judged at 2, 4, 6, 8, 10, 12 and 18 hours after removal of the discs, except where otherwise indicated.
The grading scale for the vasoconstriction activity was as follows: 0, normal skin; 1, slight pallor of indistinct outline; 2, pallor with at least two corners outlined; 3, even pallor with a clear outline of the application sites; 4, very intense pallor. The scores were totaled at each concentration at each time after removal to give a total score at each time interval and an overall total for each concentration. The higher the total score, the greater the blanching or anti-inflammatory effect.
Tested in this manner were hydrocortisone, Δ^1-cortienic acid, the methyl ester of Δ^1-cortienic acid, a combination of hydrocortisone plus Δ^1-cortienic acid, and a combination of hydrocortisone plus the methyl ester of Δ^1-cortienic acid. The structures of the test compounds are shown below:
The data for Δ^1-CA alone and Δ^1-MeCA alone are from a group of 8 volunteers, rather than the 6 used for the other testing.

[2] = test system: forearms of human volunteers; assay: Further human vasoconstriction testing, AUC through 24 hours; assay type: in vivo; conditions: for AUC (sum of the individual vasoconstriction scores through 24 hours): total of 6 tests; for effect of increasing the ratio of (II) to (Ia/Ib) to about 2:1: HC 25 mM + enhancer 50 mM versus 1:1; for synergism with HC: ratios of HC:enhancer from 5:1 to 1:2
Protocol: The objective of this study was to evaluate the effect of Δ^1-cortienic acid (Δ^1-CA) and the methyl ester of Δ^1-cortienic acid (Δ^1-MeCA) on the vasoconstriction effect of hydrocortisone (HC). The structures for HC, Δ^1-CA and Δ^1-MeCA are given above.
HC (50 mM), Δ^1-CA (0, 10, 25, 50 and 100 mM) and Δ^1-MeCA (0, 10, 25, 50 and 100 mM) were dissolved in a vehicle containing absolute ethanol and propylene glycol (9:1). The resultant HC solutions were mixed (1:1) with vehicle only, or with the Δ^1-CA or Δ^1-MeCA solutions, so that 25 mM of final HC solutions containing various concentrations of Δ^1-CA or Δ^1-MeCA (0 to 50 mM) were obtained. The resultant mixtures (20 μl) were loaded onto circular paper discs (7 mm diameter) that were attached to a water impervious adhesive film (3M). After evaporation of ethanol, the films were applied to the forearms of human volunteers for 4 hours.
Subsequently, the vasoconstriction reaction was judged by the appearance of pallor at various time intervals after the removal of the discs and films (2, 4, 6, 8, 10, 12, 18 and 24 hours after removal). The grading scale was as follows: 0, normal skin; 1, slight pallor; 2, pallor with at least two corners outlined; 3, even pallor with a clear outline of the application sites; 4, very intense pallor. Due to the relatively high variations in response between volunteers, the total score of 6 tests at each time period was taken for the activity evaluation. As before, an overall total for each concentration was obtained. The results were as follows, where AUC was estimated at the sum of the individual scores through 24 hours.

[3] = molecular target: T1, receptor ([3H]-triamcinolone acetonide as tracer) (Rattus norvegicus, UniProt P06536); conditions: medium containing 10^−5M cortienic acid as competitor; cited from earlier work
T1 sequence (P06536 1-795): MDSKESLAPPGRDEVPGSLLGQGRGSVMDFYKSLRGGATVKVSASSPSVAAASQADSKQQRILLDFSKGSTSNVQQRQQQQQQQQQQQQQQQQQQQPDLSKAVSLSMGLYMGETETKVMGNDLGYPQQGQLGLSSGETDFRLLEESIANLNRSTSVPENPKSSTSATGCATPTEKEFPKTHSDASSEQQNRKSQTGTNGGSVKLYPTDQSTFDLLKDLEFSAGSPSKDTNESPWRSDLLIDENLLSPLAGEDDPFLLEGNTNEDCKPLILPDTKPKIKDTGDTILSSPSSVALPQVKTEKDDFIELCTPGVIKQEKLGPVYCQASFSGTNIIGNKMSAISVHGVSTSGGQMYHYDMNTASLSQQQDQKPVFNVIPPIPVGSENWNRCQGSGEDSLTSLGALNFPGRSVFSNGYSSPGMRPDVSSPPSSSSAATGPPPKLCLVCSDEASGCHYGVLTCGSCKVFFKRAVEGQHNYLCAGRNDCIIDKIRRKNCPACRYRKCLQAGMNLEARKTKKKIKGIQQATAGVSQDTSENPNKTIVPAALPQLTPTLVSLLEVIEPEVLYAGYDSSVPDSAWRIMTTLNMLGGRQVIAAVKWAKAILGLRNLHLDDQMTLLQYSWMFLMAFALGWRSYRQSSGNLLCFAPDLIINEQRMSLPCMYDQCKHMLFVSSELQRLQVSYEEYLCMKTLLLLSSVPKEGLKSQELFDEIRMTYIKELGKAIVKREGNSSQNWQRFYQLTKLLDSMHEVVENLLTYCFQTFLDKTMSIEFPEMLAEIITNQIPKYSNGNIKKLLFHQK

[4] = test system: forearms of human volunteers; assay: Further human vasoconstriction testing, AUC through 24 hours; assay type: in vivo; conditions: enhancing agent alone, 0.5-50 mM
[5] = enhancing agent alone, 0.5 mM, group of 8 volunteers
[6] = enhancing agent alone, 2.5 mM, group of 8 volunteers
[7] = enhancing agent alone, 5 mM, group of 8 volunteers
[8] = enhancing agent alone, 25 mM, group of 8 volunteers
[9] = enhancing agent alone, 50 mM, group of 8 volunteers

| Compound | vasoconstriction activity when tested alone [1] | effect on the time period during which hydrocortisone displayed activity [1] | effect on the vasoconstrictor activity of hydrocortisone [1] | AUC (sum of the individual vasoconstriction scores through 18 hours) [1, 5] | AUC (sum of the individual vasoconstriction scores through 18 hours) [1, 6] | AUC (sum of the individual vasoconstriction scores through 18 hours) [1, 7] | AUC (sum of the individual vasoconstriction scores through 18 hours) [1, 8] | AUC (sum of the individual vasoconstriction scores through 18 hours) [1, 9] | effect of increasing the ratio of (II) to (Ia/Ib) to about 2:1 [2] | effect on the vasoconstriction activity of HC ([2]; co-applied with HC 25 mM) | synergism with HC [2] | AUC (sum of the individual vasoconstriction scores) [4] | further results |
| --- | --- | --- | --- | --- | --- | --- | --- | --- | --- | --- | --- | --- | --- |
| C[C@]12CCC(=O)C=C1CC[C@@H]1[C@@H]2[C@@H](O)C[C@@]2(C)[C@H]1CC[C@]2(O)C(=O)CO [Hydrocortisone, hydrocortisone, reference compound] | exhibited activity |  |  |  |  |  |  |  |  |  |  |  | time after removal of the disc by which activity was nearly gone ([1]; hydrocortisone alone): ~12 h; AUC (sum of the individual vasoconstriction scores through 18 hours) ([1]; hydrocortisone alone, 1 mM (0.036% by weight), 20 μL on disc, 4 hours, 6 forearms): 0; AUC (sum of the individual vasoconstriction scores through 18 hours) ([1]; hydrocortisone alone, 2 mM (0.073%), 6 forearms): 0; AUC (sum of the individual vasoconstriction scores through 18 hours) ([1]; hydrocortisone alone, 5 mM (0.181%), 6 forearms): 0; AUC (sum of the individual vasoconstriction scores through 18 hours) ([1]; hydrocortisone alone, 10 mM (0.363%), 6 forearms): 3; AUC (sum of the individual vasoconstriction scores through 18 hours) ([1]; hydrocortisone alone, 25 mM (0.906%), 6 forearms): 5; AUC (sum of the individual vasoconstriction scores through 18 hours) ([1]; hydrocortisone alone, 50 mM (1.81%), 6 forearms): 18; AUC (sum of the individual vasoconstriction scores through 24 hours) ([2]; HC 25 mM + Δ^1-CA 0 mM (HC alone, Δ^1-CA series)): 14; AUC (sum of the individual vasoconstriction scores through 24 hours) ([2]; HC 25 mM + Δ^1-MeCA 0 mM (HC alone, Δ^1-MeCA series)): 33 |
| CCOC(=O)O[C@]1(C(=O)OCCl)CC[C@H]2[C@@H]3CCC4=CC(=O)C=C[C@]4(C)[C@H]3[C@@H](O)C[C@@]21C [loteprednol, loteprednol etabonate] |  |  |  |  |  |  |  |  |  |  |  |  | intrinsic activity in receptor binding [3]: intrinsically active |
| COC(=O)[C@@]1(O)CCC2C3CCC4=CC(=O)C=CC4(C)C3C(O)CC21C (stereo partly drawn) [Δ^1-Cortienic Acid Methyl Ester, methyl 11β,17α-dihydroxyandrosta-1,4-dien-3-one-17β-carboxylate] | neither Δ^1-cortienic acid nor Δ^1-cortienic acid methyl ester had any vasoconstriction activity | able to extend the time period | enhanced the vasoconstrictor activity of hydrocortisone | 0 | 0 | 0 | 0 | 0 | does not appear to add any significant benefit | increased the vasoconstriction activity of HC | synergistic results | 0 | time after which pallor could still be detected in one arm ([2]; co-applied with HC): ≥ 5 days; increasing activity and duration compared with Δ^1-CA ([2]; co-applied with HC 25 mM): higher increasing activity and longer duration |
| CC12C=CC(=O)C=C1CCC1C2C(O)CC2(C)C1CC[C@]2(O)C(=O)O (stereo partly drawn) [Δ^1-Cortienic Acid, 11β,17α-dihydroxyandrosta-1,4-dien-3-one-17β-carboxylic acid] | neither Δ^1-cortienic acid nor Δ^1-cortienic acid methyl ester had any vasoconstriction activity | able to extend the time period | enhanced the vasoconstrictor activity of hydrocortisone | 0 | 0 | 0 | 0 | 0 | appears to decrease activity | increased the vasoconstriction activity of HC | synergistic results | 0 |  |
